The numbers were not newly measured in patent US20230392195A1, “SYNTHETIC LETHALITY-MEDIATED PRECISION ONCOLOGY VIA TUMOR TRANSCRIPTOME” (The United States of America, as Represented by the …, priority 2020, published 2023), which cites them from elsewhere.

For the data set, the system named is advanced solid tumors. To be noted: individual patient case: everolimus in an neuroendocrine cancer patient, cabozantinib in a colon cancer patient.

In the case of `CO[C@H]1C[C@@H]2CC[C@@H](C)[C@@](O)(O2)C(=O)C(=O)N2CCCC[C@H]2C(=O)O[C@H]([C@H](C)C[C@@H]2CC[C@@H](OCCO)[C@H](OC)C2)CC(=O)[C@H](C)/C=C(\C)[C@@H](O)[C@@H](OC)C(=O)[C@H](C)C[C@H](C)/C=C/C=C/C=C/1C` [everolimus], the “response to the therapy in the trial” value is reported as “responded”.
